Assay results from ChEMBL document CHEMBL1201862, “PubChem BioAssay data set” (2004).
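These data come from cells grown in 96-well plates and exposed to compound for 48 hours at five concentrations. The concentration for 50% growth inhibition is given as GI50.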 Calls of active or inactive are those of the source. No stated cut-off is given here; in the data, active = GI50 up to about 1.1 µM and inactive = higher.

Key:
Experiment in all cases: DTP human tumour cell line panel, 48 h
DLD-1 = system: DLD-1
DMS-273 = system: DMS-273
HOP-18 = system: HOP-18
KM-20L2 = system: KM-20L2
LXFL 529 = system: LXFL 529
M19-MEL = system: M19-MEL
RXF 631 = system: RXF 631
SNB-78 = system: SNB-78
XF498 = system: XF498

SMILES | GI50 (DLD-1) | GI50 (DMS-273) | GI50 (HOP-18) | GI50 (KM-20L2) | GI50 (LXFL 529) | GI50 (M19-MEL) | GI50 (RXF 631) | GI50 (SNB-78) | GI50 (XF498)
O=C1/C(=C/c2ccccc2)CCCC/C1=C\c1ccccc1 | 34.2 µM (inactive) | 47.1 µM (inactive) | > 100 µM (inactive) | 31 µM (inactive) | 55.2 µM (inactive) | 48.5 µM (inactive) | 52.8 µM (inactive) | > 100 µM (inactive) | 54.5 µM (inactive)
c1cc2c(cc1C1OCC3C(c4ccc5c(c4)OCO5)OCC13)OCO2 (stereo not given) | 65.3 µM (inactive) |  | > 100 µM (inactive) | 35.8 µM (inactive) | 37.8 µM (inactive) | 51.2 µM (inactive) |  | > 100 µM (inactive) | 28.8 µM (inactive)
CCOC(=O)C(=CNC(Cc1c[nH]c2ccccc12)C(=O)OC)C(=O)OCC (stereo not given) | > 100 µM (inactive) |  | 92 µM (inactive) | > 100 µM (inactive) | > 100 µM (inactive) | > 100 µM (inactive) | > 100 µM (inactive) | > 100 µM (inactive) | > 100 µM (inactive)
CC1C(=O)OC2CC[N+]3(CC(=O)c4ccc(Br)cc4)CC=C(COC(=O)C(C)(O)C1(C)O)C23 (stereo not given) | > 375 µM (inactive) | > 128 µM (inactive) | > 375 µM (inactive) | > 37.5 µM (inactive) |  | > 375 µM (inactive) |  | 211 µM (inactive) | 259 µM (inactive)
CCC(O)(c1ccc(OC)cc1)C(c1ccc(OCc2ccccc2)cc1)c1ccc(OCc2ccccc2)cc1 (stereo not given) | > 100 µM (inactive) | > 100 µM (inactive) |  | > 100 µM (inactive) | > 100 µM (inactive) | > 100 µM (inactive) | > 100 µM (inactive) | > 100 µM (inactive) | > 100 µM (inactive)
O=C1c2ccccc2C(=O)c2sc(Nc3ccc(Cl)cc3)nc21 | 1.78 µM (inactive) | 1.97 µM (inactive) | 2.24 µM (inactive) | 13.5 µM (inactive) | 1.69 µM (inactive) | 0.388 µM (active) |  | 3.49 µM (inactive) | 2.16 µM (inactive)
C#CCOc1c(C(=O)OCC)c(=O)n(C)c2ccccc12 | > 100 µM (inactive) |  | > 100 µM (inactive) | > 100 µM (inactive) | > 100 µM (inactive) | > 100 µM (inactive) | > 100 µM (inactive) | > 100 µM (inactive) | 72.6 µM (inactive)
CC1=Nc2c(ccc3c2C(=O)c2ccccc2C3=O)NC(c2ccncc2)C1 (stereo not given) | 29.4 µM (inactive) | > 10 µM (inactive) | > 10 µM (inactive) | > 10 µM (inactive) | > 10 µM (inactive) | > 10 µM (inactive) | 36.6 µM (inactive) | > 10 µM (inactive) | > 100 µM (inactive)
COC(=O)CC(c1ccccc1)C1(c2ccccc2)SCCS1 (stereo not given) | > 290 µM (inactive) | 104 µM (inactive) | > 290 µM (inactive) | > 290 µM (inactive) | 92.7 µM (inactive) | > 290 µM (inactive) | 161 µM (inactive) |  | > 290 µM (inactive)
O=C(N/C(=C\c1cccc([N+](=O)[O-])c1)c1nc2c(O)nc(S)nc2[nH]1)c1ccccc1 | > 100 µM (inactive) |  | > 100 µM (inactive) | > 100 µM (inactive) | 58.5 µM (inactive) | > 100 µM (inactive) | > 100 µM (inactive) | > 100 µM (inactive) | > 100 µM (inactive)
Cc1ccccc1NC(=O)C(=O)CC(=O)c1sc(-n2nc(-c3ccccc3)cc2-c2ccccc2)nc1C | > 100 µM (inactive) | > 100 µM (inactive) |  | > 100 µM (inactive) | > 100 µM (inactive) | > 100 µM (inactive) | > 100 µM (inactive) | > 100 µM (inactive) | 
COC(=O)c1nn(C(=N)c2ccc(Cl)cc2)c2c1CCC2 | > 100 µM (inactive) | > 100 µM (inactive) |  | > 100 µM (inactive) | > 100 µM (inactive) | > 100 µM (inactive) |  | > 100 µM (inactive) | > 100 µM (inactive)
Cn1nc(N)nc1N=S(C)(C)=N |  | > 100 µM (inactive) | > 100 µM (inactive) | > 100 µM (inactive) | > 100 µM (inactive) |  |  | > 100 µM (inactive) | > 100 µM (inactive)
CCCCN(CCCC)C(=O)/C(CC(=O)c1cccc2ccccc12)=N\NC(=O)c1cc2ccccc2cc1O | 23.4 µM (inactive) |  |  | 22.1 µM (inactive) | 27.3 µM (inactive) | 20.4 µM (inactive) | 26.7 µM (inactive) | 24.7 µM (inactive) | 20 µM (inactive)
C=CCC1(CN(C)C)CC/C(=C\c2ccc3c(c2)OCO3)C1=O (stereo not given) | 27.7 µM (inactive) | 47.6 µM (inactive) | > 100 µM (inactive) | 28.9 µM (inactive) | 34.5 µM (inactive) | 39.6 µM (inactive) | 25.4 µM (inactive) | > 100 µM (inactive) | 
